In the METLIN SMRT retention time set (Domingo-Almenara et al. 2019):

Test: gradient 5% acetonitrile 3 min, to 50% in 2 min, to 85% in 15 min, held 3 min, 100 µL/min
Conditions: column: Zorbax Extend-C18 2.1 x 50 mm; eluents: water / acetonitrile, 0.1% formic acid
Procedure, shortened: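 Pure standards were analyzed in mixtures of ~100 molecules using HPLC coupled to a quadrupole time-of-flight mass spectrometer, in both positive and negative ionization mode. Separation used a Zorbax Extend-C18 column (2.1 × 50 mm, 1.8 μm) at 100 μL/min, with water and acetonitrile each containing 0.1% formic acid. Dead and dwell volumes were 40 μL and 900 μL, and data were collected over 3 months. Retention time was read from computationally picked adduct peaks, each inspected manually.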

| SMILES | RP-LC retention time |
| --- | --- |
| Cn1nc(CO)c2c1CCN(C(=O)c1cc(-c3cccs3)[nH]n1)C2 | 602 s |
| O=C(NCc1ccco1)c1c(-c2ccccc2)nnc2ccccc12 | 756 s |
| Cc1ccc(CNC(=O)Cn2nc3cc(-c4ccccc4)nc(C)n3c2=O)cc1 | 930 s |
| CC(C)CN1CCn2cc(C(=O)NCc3ccc(F)cc3F)nc2C1 | 608 s |
| Fc1ccc(-c2nc(-c3ccc(-n4cccn4)nc3)no2)c(Cl)c1 | 1300 s |
| COCCN1C(=O)CS(=O)C12CCN(C(=O)Nc1ccc3c(c1)OCCO3)CC2 (stereo unspecified) | 608 s |
| CCOC(=O)c1[nH]c(C)c(C(=O)C(C)N(CC(C)C)C(=O)c2ccc(C)cc2)c1C (stereo unspecified) | 1030 s |
| Cc1ccc(C)c(NC(=O)N(C)CC2CCOC2)c1 (stereo unspecified) | 705 s |
| O=C(CCCc1nc2cccnc2n1Cc1ccccc1)N1CCN(c2ncccn2)CC1 | 563 s |
| Cc1ccc(S(=O)(=O)NCC2CN(CC3CC3)CC23CCCCC3)c(C)c1 (stereo unspecified) | 767 s |
| O=C(COC(=O)c1cccnc1)Nc1ccc2c(c1)OCO2 | 640 s |
| CC(NC(=O)c1ccco1)c1nc2ccccc2n1CC(=O)N1CCCC1 (stereo unspecified) | 614 s |
| O=C(Cc1ccc(Cl)cc1)NCc1nc(-c2ccc3oc(-c4ccccc4)nc3c2)no1 | 1110 s |
| Cc1c(-c2nnc(C(=O)NCCCN3CCCCCC3)o2)oc2ccccc12 | 674 s |
| CS(=O)(=O)N1CCCC(C(=O)NC2CCCC2)CCNC(=O)CC1 (stereo unspecified) | 603 s |
| CC(=O)N1CCC(Cc2noc(C3CC3)n2)C1 (stereo unspecified) | 625 s |
| Cc1ccc(-c2noc(CCN3CCN(c4ccccc4)CC3)n2)cc1 | 751 s |
| Cc1noc(C)c1-c1ccc(S(=O)(=O)Nc2ccccc2F)cc1 | 881 s |

| SMILES | RP-LC retention time |
| --- | --- |
| COc1cc(OC)cc(-c2nc(-c3ccc4nnn(C(C)C)c4c3)no2)c1 | 1160 s |
| Clc1ccc(-c2nc3ccccn3c2Nc2ccc3c(c2)OCO3)cc1 | 727 s |
| Cc1cc(C)n2c(Nc3cccc(C(F)(F)F)c3)c(-c3ccc(O)cc3)nc2n1 | 697 s |
| O=C(Cn1nc(-c2ccccc2)c2cc(Cl)ccc21)NCc1cccnc1 | 712 s |
| CCN1CCN(Cc2nc3cc(NC(=O)C(C)C)ccc3n2C(C)C)CC1 | 563 s |
| Cc1ccc2[nH]c(C(=O)N3CCOCC3)cc2c1 | 582 s |
| CCS(=O)(=O)N1CC(=O)N(c2ccccc2C)C(C)(C(=O)NC2CCCCCCC2)C1 (stereo unspecified) | 951 s |
| Cc1nc(-c2cccnc2)nc2c1CCC(=O)N2CC1CCCCC1 | 963 s |
| COc1ccc(-c2nc(C)cc(C)c2CNC(=O)c2ccc(Br)o2)cc1 | 634 s |
| CN(C)C[C@@H]1CN(c2ncccn2)C[C@H]1NS(=O)(=O)Cc1ccc(F)cc1 | 590 s |
| Cn1nc(C(=O)N2C[C@@H]3C[C@H](NC(=O)c4ccccc4)[C@H]2C3)c2ccccc21 | 788 s |
| O=C(NCc1ccc2c(c1)OCO2)c1cn2c(n1)COCC2 | 616 s |
| CC1CCCCN1c1nc(-c2ccc(C(C)(C)C)cc2)nc2ccccc12 (stereo unspecified) | 1050 s |
| CC(C)(C)c1csc(-c2csc(S(=O)(=O)Nc3cccc(Cl)c3F)c2)n1 | 1330 s |
| CN(C)C1(CC2CC2)CCN(C(=O)c2ccco2)CC1 | 556 s |
| Cc1ccc(CNC(=O)COc2cc(C)nc(N3CCN(c4ccccc4)CC3)n2)cc1 | 922 s |
| COc1cc(C(=O)N2CCC3(CC2)Nc2cc(F)ccc2-n2cccc23)cc(OC)c1OC | 868 s |
| CCOc1ccc(NC(=O)NCC(c2cccnc2)c2c[nH]c3ccccc23)cc1 (stereo unspecified) | 670 s |

Continued, values first:

| RP-LC retention time | SMILES |
| --- | --- |
| 784 s | COC(=O)c1ccc(C2CC(=O)Nc3cc(OC)cc(OC)c32)cc1 (stereo unspecified) |
| 802 s | CCOC(=O)C1CCN(C(=O)Cn2c(=O)c3cccn3c3ccc(F)cc32)CC1 |
| 673 s | COc1ccc(-c2c(C)noc2NC(C)=O)cc1S(=O)(=O)N1CCCC1 |
| 858 s | CCOCCCNC(=O)N1CCC2(CC1)Nc1cc(F)ccc1-n1cccc12 |
| 907 s | CCOc1ccc(C(C)NC(=O)C2c3ccccc3CCN2C(=O)C2CC2)cc1 (stereo unspecified) |
| 716 s | Cc1ccc(-n2ncc3c(C)nnc(SCC(=O)N4CCC(C)CC4)c32)cc1C |
| 835 s | O=C(Nc1cc(Cl)ccc1F)C1CC(=O)N(c2ccc3c(c2)CCN3C(=O)C2CC2)C1 (stereo unspecified) |
| 776 s | O=C(c1ccc(Br)o1)N1CCN(Cc2nnnn2-c2ccc(F)cc2)CC1 |
| 954 s | O=C(CCn1nnc2cc(-c3noc(-c4ccccc4Br)n3)ccc21)N1CCCC1 |
| 606 s | O=C1CCCc2cc(S(=O)(=O)NCC3CCN(Cc4cccc(F)c4)CC3)ccc2N1 |
| 740 s | CC(=O)N1CCc2cc(N3CC(C(=O)Nc4ccc(F)c(C)c4)CC3=O)ccc21 (stereo unspecified) |
| 751 s | O=C(NCc1ccc(F)cc1)N1CCC(c2noc(C3CC3)n2)C1 (stereo unspecified) |
| 938 s | Cc1ccc(C)c(Sc2ccc(N3CCC(C(=O)NCC(C)c4ccccc4)CC3)nn2)c1 (stereo unspecified) |
| 756 s | CC(=O)Nc1ccc(SCC(=O)c2ccc(Cl)cc2)nn1 |
| 646 s | CC(=O)N1CCN(c2ccc(NC(=O)c3ccccc3Br)cc2)CC1 |
| 955 s | CC(=O)c1ccc(N2CCN(C(=O)c3csc(-c4ccc(C)n4C)n3)CC2)cc1 |
| 902 s | COC(=O)c1ccccc1NC(=O)N1CCC(C(=O)NCc2csc(-c3ccccc3)n2)CC1 |
| 603 s | O=C(CCCn1c(=O)c2cccn2c2ccc(F)cc21)NCCCN1CCOCC1 |
| 824 s | COc1ccc(NC(=O)C2CCN(S(C)(=O)=O)c3ccccc3O2)cc1 (stereo unspecified) |
| 751 s | COC(=O)c1ccc(NC(=O)C(=O)NCC2CCN(C(=O)c3ccccc3F)CC2)cc1 |
| 590 s | Cc1nc(Nc2ccc(F)cn2)sc1C(=O)N1CCC(C(N)=O)(N2CCCCC2)CC1 |
| 828 s | CC(C)CN1C(=O)c2cccn2CC1C(=O)NCC1CCCCC1 (stereo unspecified) |
| 713 s | COc1ccc(NC(=O)Cn2cc(C(=O)N3CCCCC3)c(=O)c3ccc(C)nc32)cc1 |
| 891 s | COC(=O)c1ccc(CN2N=C(C(=O)N3CCC(C)CC3)S(=O)(=O)c3ccccc32)o1 |
| 978 s | O=C(NCc1cccc(Br)c1)C1CCCN(C(=O)Cc2cccc3ccccc23)C1 (stereo unspecified) |
| 927 s | CS(=O)(=O)N1CCCc2cc(C(=O)Nc3ccccc3Br)ccc21 |
| 1000 s | CCOC(=O)c1ccc(NC(=O)C2C(=O)N(C)C3(C)CC2c2ccccc2O3)cc1 (stereo unspecified) |
| 639 s | O=C(CCC(=O)N1CC2CCCN2c2ccccc21)NCc1ccccn1 (stereo unspecified) |
| 714 s | COc1ccc(N2CCN(C(=O)c3cn4nc(Cl)ccc4n3)CC2)cc1 |
| 732 s | COc1ccc(Cl)cc1S(=O)(=O)N1CCC(C(=O)NCCc2csc(C)n2)CC1 |
